Data on seven molecules can be found in patent US20110178053A1, “AZACARBOLINE DERIVATIVES, PREPARATION METHOD THEREOF AND THERAPEUTIC USE OF SAME” (SANOFI-AVENTIS, priority 2008, published 2011).

The test system of one test is EOL-1. The test can be described thus: Cell viability assay (CellTiter-Blue), EOL-1. The format is cell-based. Particulars: Homo sapiens, EOL1, read-out: EC50 EOL-1 μM (lymphoma); EOL-1 cells; cell proliferation/viability. The source says:
(§1) The representative compounds of the invention are also screened as regards their effects on cell proliferation and viability using a variety of human tumour cell lines, which are representative of various pathological indications. These cell lines include: • Models of haematological cancers: • TF-1 (acute myelogenic leukaemia; AML M6 at the time of diagnosis); • KG-1 (AML; erythroleukaemia evolving into AML); • KG-1a (AML; sub-clone derived from immature KG-1); • EOL-1 (AML; eosinophilic leukaemia); • PL-21 (AML; M3); • ML-2 (AML; T-NHL evolving into T-ALL evolving into AML M4); • HL-60 (AML, M3); • Kasumi-1 (AML); • GDM-1 (AML); • K-562 (CML—chronic myelogenic leukaemia; blastic crisis); • JURL-MK1 (CML; blastic crisis); • DND-41 (T-ALL—-cell acute lymphoblastic leukaemia); • Jurkat (T-ALL); NALM-6 (B-ALL—B-cell ALL); • CEM (ALL; lymphosarcoma evolving into ALL); • Jeko-1 (B-NHL—B-cell non-Hodgkin lymphoma; mantle-cell lymphoma derived from a variant with large cells as a leukaemic transformation); • WSU-DLCL2 (B-NHL; large B-cell diffuse lymphoma); • RL (B-NHL; undifferentiated diffuse); • OCI-Ly10 (B-NHL); • DoHH-2 (B-NHL); • RPMI-8226 (MM—multiple myeloma); • JVM-2 (B-CLL—B-cell chronic lymphocytic leukaemia); and • JVM-3 (B-CLL) • MV4-11 (AML) • MOLM13 (AML). • Solid tumour models: • HCT-116 (bowel cancer); • HT-29 (bowel cancer); • HC-15 (bowel cancer); • H460 (lung cancer; non-small-cell lung cancer); • A375 (melanoma); • B16F10 (melanoma); • MDA-A1 (breast cancer); • MDA-MB231 (breast cancer); • MDA-MB231 adr (breast cancer); • PANC-1 (pancreatic cancer); and • PC-3 (prostate cancer).
(§2) In order to measure the viability, the tumour cells are incubated in a 96-well or 384-well format for 48, 72 or 96 hours, preferably 72 hours, with a compound of the invention at dilutions of a factor 3 with, in general, nine doses in total, the highest dose being equal to 10 μM or 30 μM. The cell viability is evaluated by adding CellTiter-Blue® (Promega, Madison, Wis., United States) for 4 hours and end-point readings are taken using a SpectraMax Genmini EM (Molecular Devices, Sunnyvale, Calif., United States). The CellTiter-Blue® cell viability assay measures the ability of the cells in culture to reduce resazurin to resorufin, the fluorescence signal intensity being directly proportional to the number of live cells.

The target in the next test is T1, Pim-3 (Homo sapiens, UniProt Q86V86).
T1 construct: His6-labelled recombinant full-length human Pim-1, Pim-2 or Pim-3 protein; His6; made in house
Kind of test: TR-FRET assay, Pim-3 kinase (phosphorylation of Bad Ser112). The format is biochemical. The conditions noted are these: TR-FRET; ATP 40 μM; read-out: IC50 Pim3. The gist of the method:
(§3)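 For each of Pim-1, Pim-2 and Pim-3 (His6-tagged full-length human), compounds were titrated over 10 concentrations in duplicate, typically from 30 μM, with ATP at 40 μM, equal to apparent KM. Bad Ser112 phosphorylation was read as the 665/615 nm TR-FRET ratio and IC50 fitted by 4-parameter logistic model.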

The next test concerns KG-1a. Kind of test: Cell viability assay (CellTiter-Blue), KG-1a. Type of test: cell-based. The conditions noted are these: Homo sapiens; KG-1a cells; cell proliferation/viability; read-out: EC50 KG-1a μM (leukaemia).
From the text: as §1, §2
Background: Alamar Blue is a resazurin reagent that responds to reducing activity.

Another test has as its target T2, Pim-2 (Homo sapiens, UniProt Q9P1W9).
T2 construct: His6-labelled recombinant full-length human Pim-1, Pim-2 or Pim-3 protein; His6; made in house
The test can be described thus: TR-FRET assay, Pim-2 kinase (phosphorylation of Bad Ser112). Type of test: biochemical. Particulars: TR-FRET; ATP 40 μM; read-out: IC50 Pim2. Summed up:
as §3

The next test deals with MV4-11. Kind of test: Cell viability assay (CellTiter-Blue), MV4-11. Particulars: Homo sapiens; MV4-11 cells; cell proliferation/viability; read-out: IC50 MV4-11 μM (myeloma). The format is cell-based.
From the text: as §1, §2

For another test, the target named is PLK1 (Homo sapiens, UniProt P53350). Kind of test: PLK1 biochemical inhibition.
A further test deals with T3, Pim-1 (Homo sapiens, UniProt P11309).
T3 construct: His6-labelled recombinant full-length human Pim-1, Pim-2 or Pim-3 protein; His6; made in house
Kind of test: TR-FRET assay, Pim-1 kinase (phosphorylation of Bad Ser112). Type of test: biochemical. Particulars: TR-FRET; ATP 40 μM; read-out: IC50 Pim1. The gist of the method:
as §3

The next test concerns HCT116. The test can be described thus: Cell viability assay (CellTiter-Blue), HCT116. Particulars: Homo sapiens, HCT-116; HCT116 cells; cell proliferation/viability; read-out: EC50 HCT116 μM (bowel). The format is cell-based. How it is done: (§4) The representative compounds of the invention are also screened as regards their effects on cell proliferation and viability using a variety of human tumour cell lines, which are representative of various pathological indications. […]
as §2

In a further test the test system is B16F10. The test can be described thus: Cell viability assay (CellTiter-Blue), B16F10. Type of test: cell-based, human. Particulars: Mus musculus, B16-F10; B16F10 cells; cell proliferation/viability; read-out: EC50 B16F10 μM (melanoma). As for the experimental part: as §4, §2
The test system of a further test is MOLM-13. Kind of test: Cell viability assay (CellTiter-Blue), MOLM-13. Type of test: cell-based. Particulars: Homo sapiens; MOLM-13 cells; cell proliferation/viability; read-out: IC50 MOLM-13 μM (myeloma).
From the text: as §1, §2

For another test, the system named is H460. Kind of test: Cell viability assay (CellTiter-Blue), H460. Type of test: cell-based. The conditions noted are these: Homo sapiens, NCI-H460; H460 cells; cell proliferation/viability; read-out: EC50 H460 μM (lung). As for the experimental part:
as §4, §2

In a further test the test system is PI3K. Kind of test: PI3K biochemical inhibition.

T3 sequence (P11309 whole entry): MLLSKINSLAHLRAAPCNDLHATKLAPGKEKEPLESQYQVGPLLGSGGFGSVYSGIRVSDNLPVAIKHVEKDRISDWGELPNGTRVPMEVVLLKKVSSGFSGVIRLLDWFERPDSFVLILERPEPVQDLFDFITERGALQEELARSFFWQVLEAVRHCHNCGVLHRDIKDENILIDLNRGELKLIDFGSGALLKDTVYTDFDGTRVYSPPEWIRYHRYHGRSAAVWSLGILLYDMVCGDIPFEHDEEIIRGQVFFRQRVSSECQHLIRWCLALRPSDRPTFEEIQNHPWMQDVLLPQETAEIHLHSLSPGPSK
T2 sequence (Q9P1W9 whole entry): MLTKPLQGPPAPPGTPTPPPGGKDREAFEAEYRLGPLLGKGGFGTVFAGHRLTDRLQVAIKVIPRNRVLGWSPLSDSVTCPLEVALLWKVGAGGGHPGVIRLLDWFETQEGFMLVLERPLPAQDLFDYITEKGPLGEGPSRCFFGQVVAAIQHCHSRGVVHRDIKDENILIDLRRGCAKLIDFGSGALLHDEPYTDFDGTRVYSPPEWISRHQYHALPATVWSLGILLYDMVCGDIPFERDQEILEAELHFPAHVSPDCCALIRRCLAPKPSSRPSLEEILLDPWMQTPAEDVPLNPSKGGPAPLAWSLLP
Sequence of PLK1 (P53350 whole entry, species assumed): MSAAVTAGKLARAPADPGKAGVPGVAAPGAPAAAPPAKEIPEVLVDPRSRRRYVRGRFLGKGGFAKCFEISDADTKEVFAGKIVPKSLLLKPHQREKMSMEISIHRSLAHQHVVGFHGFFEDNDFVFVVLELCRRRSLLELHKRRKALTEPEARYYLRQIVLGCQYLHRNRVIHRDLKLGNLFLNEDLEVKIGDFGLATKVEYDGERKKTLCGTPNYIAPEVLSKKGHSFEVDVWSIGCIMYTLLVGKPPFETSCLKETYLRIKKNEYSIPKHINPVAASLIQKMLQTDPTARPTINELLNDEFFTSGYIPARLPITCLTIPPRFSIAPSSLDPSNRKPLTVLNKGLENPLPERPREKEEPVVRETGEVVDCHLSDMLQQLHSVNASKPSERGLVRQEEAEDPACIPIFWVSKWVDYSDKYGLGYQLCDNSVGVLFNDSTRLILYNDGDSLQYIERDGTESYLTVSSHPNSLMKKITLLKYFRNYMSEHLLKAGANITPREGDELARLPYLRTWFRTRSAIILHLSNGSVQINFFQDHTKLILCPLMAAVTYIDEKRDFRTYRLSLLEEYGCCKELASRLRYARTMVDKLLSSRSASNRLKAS

The EC50 is the concentration that produces a half-maximal response. Broadly, the IC50 is the concentration that gives 50% inhibition. Regarding `c1cncc(-c2cc3c(cn2)[nH]c2ncccc23)c1` [Example 1, 6-pyrid-3-yl-9H-pyrrolo[2,3-b:5,4-c′]dipyridine], the values for the EC50 in the test with EOL-1 and with KG-1a were 1000 to 5000 nM and 1 to 5 µM, respectively. Besides, the IC50 on Pim-3 lay in the range of 100 to 1000 nM; on Pim-2, 1000 to 5000 nM; in the test on MV4-11, 1000 to 5000 nM; against PLK1 it was 100 to 1000 nM; at Pim-1, 1 to 100 nM.

With `CC(C)(C)OC(=O)c1cnc2[nH]c3cnc(-c4cccnc4)cc3c2c1` [Example 5, 2-methylpropan-2-yl 6-(pyrid-3-yl)-9H-pyrrolo[2,3-b:5,4-c′]dipyridine-3-carboxylate], the EC50 in the test with EOL-1 fell in the range of 100 to 1000 nM; with KG-1a, 0.1 to 1 µM. In addition, the IC50 at Pim-3 is 100 to 1000 nM; on Pim-2 it was more than 5000 nM; in the test with MV4-11 it was 100 to 1000 nM; on PLK1, more than 5000 nM; on Pim-1, 1 to 100 nM.

Consider `CCCN(C)c1cnc2[nH]c3cnc(-c4cccnc4)cc3c2c1` [Example 10, N-methyl-N-propyl-6-(pyrid-3-yl)-9H-pyrrolo[2,3-b:5,4-c′]dipyrid-3-amine], for which the half-maximal effective concentration (EC50) lay in the range of 100 to 1000 nM in the test with EOL-1 and 0.1 to 1 µM with KG-1a. The IC50 at Pim-3 was in the range of 1 to 100 nM; at Pim-2, 1000 to 5000 nM; in the test with MV4-11 it was 100 to 1000 nM; against PLK1, 100 to 1000 nM; on Pim-1 it was 1 to 100 nM.

In the case of `c1cncc(-c2cc3c(cn2)[nH]c2ncc(N4CCOCC4)cc23)c1` [Example 14, 3-(morpholin-4-yl)-6-(pyrid-3-yl)-9H-pyrrolo[2,3-b:5,4-c′]dipyridine], the EC50 in the test with EOL-1 is 100 to 1000 nM; in the test on KG-1a, 1 to 5 µM. In addition, the IC50 at Pim-3 is 1 to 100 nM; at Pim-2, 1000 to 5000 nM; with MV4-11, 100 to 1000 nM; against PLK1, more than 5000 nM; on Pim-1, 1 to 100 nM.

`CC(C)(CO)COC(=O)c1cnc2[nH]c3cnc(-c4cccnc4)cc3c2c1` [Example 15, 3-hydroxy-2,2-dimethylpropyl 6-(pyrid-3-yl)-9H-pyrrolo[2,3-b:5,4-c′]-dipyridine-3-carboxylate]: the concentration giving a half-maximal response (EC50) with EOL-1 lay in the range of 100 to 1000 nM; in the test with KG-1a, 0.1 to 1 µM. Besides, the IC50 at Pim-3 was 1 to 100 nM; on Pim-2 it was 100 to 1000 nM; with MV4-11, 100 to 1000 nM; at PLK1, more than 5000 nM; on Pim-1 it was 1 to 100 nM.

In the case of `CS(=O)(=O)Nc1ccc(-c2c(F)cnc3[nH]c4cnc(-c5cccnc5)cc4c23)cc1` [Example 22, N-[4-(3-Fluoro-6-(pyrid-3-yl)-9H-pyrrolo[2,3-b:5,4-c′]dipyrid-4-yl)-phenyl]methanesulfon-amide], the EC50 with EOL-1, in the test with HCT116, with B16F10 and in the test with H460 was 1 to 100 nM each time. Further, the IC50 at Pim-3 fell in the range of 1 to 100 nM; on Pim-2 it was 100 to 1000 nM; in the test with MV4-11, 1 to 100 nM; in the test with MOLM-13, 1 to 100 nM; against PLK1 it was 1 to 100 nM; in the test on PI3K, 100 to 1000 nM. On Pim-1, the IC50 lay in the range of 1 to 100 nM.

`Cn1cc(-c2cc3c(cn2)[nH]c2ncccc23)cn1` [Example 39, 6-(1-Methyl-1H-pyrazol-4-yl)-9H-pyrrolo[2,3-b:5,4-c′]dipyridine]: the EC50 in the test with EOL-1 fell in the range of 100 to 1000 nM; in the test on KG-1a, 0.1 to 1 µM. Besides, the IC50 was 100 to 1000 nM at Pim-3; 1000 to 5000 nM at Pim-2; 1000 to 5000 nM with MV4-11; 1000 to 5000 nM with MOLM-13; 1000 to 5000 nM against PLK1; 1 to 100 nM at Pim-1.
